#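 Dose response: 5 concentrations. Exposure: 48 h. Format: 96-well plates. Endpoint: linear interpolation; highest concentration if not reached. GI50 is the concentration that inhibits growth by half. TGI: concentration producing complete growth inhibition.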
# Assays:
# Assay in all cases: growth of human tumour cells (NCI), 48 h
# [1] = system: 786-0 renal
# [2] = system: A498 renal
# [3] = system: A549 NSCLC
# [4] = system: ACHN renal
# [5] = system: BT-549 breast
# [6] = system: CAKI-1 renal
# [7] = system: CCRF-CEM leukemia
# [8] = system: COLO 205 colon
# [9] = system: DU-145 prostate
# [10] = system: HCC-2998 colon
# [11] = system: HCT-116 colon
# [12] = system: HCT-15 colon
# [13] = system: HL-60(TB) leukemia
# [14] = system: HOP-62 NSCLC
# [15] = system: HOP-92 NSCLC
# [16] = system: HS 578T breast
# [17] = system: HT29 colon
# [18] = system: IGROV1 ovarian
# [19] = system: K-562 leukemia
# [20] = system: KM12 colon
# [21] = system: LOX IMVI melanoma
# [22] = system: M14 melanoma
# [23] = system: MALME-3M melanoma
# [24] = system: MCF7 breast
# [25] = system: MDA-MB-231 breast
# [26] = system: MDA-MB-435
# [27] = system: MOLT-4 leukemia
# [28] = system: NCI-H226 lung
# [29] = system: NCI-H23 lung
# [30] = system: NCI-H460 lung
# [31] = system: NCI-H522 lung
# [32] = system: NCI/ADR-RES ovarian
# [33] = system: OVCAR-3 ovarian
# [34] = system: OVCAR-4 ovarian
# [35] = system: OVCAR-5 ovarian
# [36] = system: OVCAR-8 ovarian
# [37] = system: PC-3 prostate
# [38] = system: RPMI-8226 leukemia
# [39] = system: RXF 393 renal
# [40] = system: SF-268 CNS
# [41] = system: SF-295 CNS
# [42] = system: SF-539 CNS
# [43] = system: SK-MEL-2 melanoma
# [44] = system: SK-MEL-28 melanoma
# [45] = system: SK-MEL-5 melanoma
# [46] = system: SK-OV-3 ovarian
# [47] = system: SN12C renal
# [48] = system: SNB-19 CNS
# [49] = system: SNB-75 CNS
# [50] = system: SR leukemia
# [51] = system: SW-620 colon
# [52] = system: T-47D breast
# [53] = system: TK-10 renal
# [54] = system: U251 CNS
# [55] = system: UACC-257 melanoma
# [56] = system: UACC-62 melanoma
# [57] = system: UO-31 renal
smiles,measurement,setting,value
COc1cccc(C2CC(=O)Nc3cc4c(cc32)CCC4)c1OC (centres undefined),GI50,[1],4.84 µM
same,TGI,[1],27.9 µM
same,GI50,[2],2.39 µM
same,TGI,[2],13.2 µM
same,GI50,[3],0.859 µM
same,TGI,[3],> 33.8 µM
same,GI50,[4],6.72 µM
same,TGI,[4],> 84 µM
same,GI50,[5],3.57 µM
same,TGI,[5],16.7 µM
same,GI50,[6],3.36 µM
same,TGI,[6],56.2 µM
same,GI50,[7],2.28 µM
same,TGI,[7],7.08 µM
same,GI50,[8],3.13 µM
same,TGI,[8],8.48 µM
same,GI50,[9],3.48 µM
same,TGI,[9],16.1 µM
same,GI50,[10],7.56 µM
same,TGI,[10],28.1 µM
same,GI50,[11],3.61 µM
same,TGI,[11],16 µM
same,GI50,[12],3.63 µM
same,TGI,[12],25.8 µM
same,GI50,[13],2.73 µM
same,TGI,[13],7.88 µM
same,GI50,[14],5.97 µM
same,TGI,[14],> 46.8 µM
same,GI50,[15],0.758 µM
same,TGI,[15],7.83 µM
same,GI50,[16],3.04 µM
same,TGI,[16],34.8 µM
same,GI50,[17],3.26 µM
same,TGI,[17],12.6 µM
same,GI50,[18],6.49 µM
same,TGI,[18],59.3 µM
same,GI50,[19],3.07 µM
same,TGI,[19],37.5 µM
same,GI50,[20],4.21 µM
same,TGI,[20],18.6 µM
same,GI50,[21],4.26 µM
same,TGI,[21],16.8 µM
same,GI50,[22],2.59 µM
same,TGI,[22],8.94 µM
same,GI50,[23],5.98 µM
same,TGI,[23],36 µM
same,GI50,[24],3.22 µM
same,TGI,[24],18.4 µM
same,GI50,[25],6.17 µM
same,TGI,[25],39.5 µM
same,GI50,[26],1.44 µM
same,TGI,[26],4.1 µM
same,GI50,[27],3.16 µM
same,TGI,[27],10.2 µM
same,GI50,[28],9.7 µM
same,TGI,[28],44.2 µM
same,GI50,[29],3.4 µM
same,TGI,[29],26.1 µM
same,GI50,[30],3.16 µM
same,TGI,[30],12.3 µM
same,GI50,[31],3.67 µM
same,TGI,[31],18.4 µM
same,GI50,[32],2.43 µM
same,TGI,[32],7.14 µM
same,GI50,[33],2.37 µM
same,TGI,[33],5.9 µM
same,GI50,[34],12.3 µM
same,TGI,[34],98.2 µM
same,GI50,[35],7.67 µM
same,TGI,[35],> 80.3 µM
same,GI50,[36],3.67 µM
same,TGI,[36],31.9 µM
same,GI50,[37],3.41 µM
same,TGI,[37],47.3 µM
same,GI50,[38],2.63 µM
same,TGI,[38],14.6 µM
same,GI50,[39],3.34 µM
same,TGI,[39],13.7 µM
same,GI50,[40],5.34 µM
same,TGI,[40],27.5 µM
same,GI50,[41],2.83 µM
same,TGI,[41],12.4 µM
same,GI50,[42],3.03 µM
same,TGI,[42],10.4 µM
same,GI50,[43],4.12 µM
same,TGI,[43],17.3 µM
same,GI50,[44],5.33 µM
same,TGI,[44],28.3 µM
same,GI50,[45],2.9 µM
same,TGI,[45],11.1 µM
same,GI50,[46],3.73 µM
same,TGI,[46],20 µM
same,GI50,[47],5.4 µM
same,TGI,[47],34.8 µM
same,GI50,[48],8.66 µM
same,TGI,[48],> 100 µM
same,GI50,[49],2.31 µM
same,TGI,[49],11.9 µM
same,GI50,[50],2.87 µM
same,TGI,[50],10.8 µM
same,GI50,[51],3.11 µM
same,TGI,[51],> 46.2 µM
same,GI50,[52],5.52 µM
same,TGI,[52],52.3 µM
same,GI50,[53],12.4 µM
same,TGI,[53],> 100 µM
same,GI50,[54],4.71 µM
same,TGI,[54],19.3 µM
same,GI50,[55],1.11 µM
same,TGI,[55],11.2 µM
same,GI50,[56],2.9 µM
same,TGI,[56],14.4 µM
same,GI50,[57],7.18 µM
same,TGI,[57],38.7 µM

# — PubChem BioAssay (NCI)
